Experimental data reported in patent US20250195530A1, “POLQ INHIBITORS” (ASTRAZENECA AB, priority 2022, published 2025).
Read-outs that look alike come from different tables or passages of the source.

Columns and labels:
DLD-1 BRCA2−/− cells = assay: Homologous recombination synthetic lethal inhibition of proliferation, DLD-1 BRCA2-/- (Cell Titre Glo 3D); format: cell-based; conditions: Homo sapiens
Summary of the method: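 DLD-1 BRCA2−/− (3,000 cells/mL) and parental DLD-1 (1,500 cells/mL) cells in phenol red-free RPMI 1640 with 10% FBS were exposed to a 10-point, three-fold compound series from 10 μM to 0.51 nM at 37 °C, 5% CO2. Medium and compound were replenished on day 6. CellTiter-Glo 3D luminescence was read on day 7 (DLD-1) or day 12 (BRCA2−/−), and IC50 was taken as 50% reduction of maximum signal.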

DLD-1 cells = assay: Inhibition of proliferation, DLD-1 BRCA2 wt control (Cell Titre Glo 3D); format: cell-based; conditions: for IC50: Homo sapiens
From the text: This assay identifies anti-proliferative effects of POLQ compounds in the homologous recombination deficient colorectal cell line DLD-1 BRCA2−/− over 8-9 population doublings (7 days for DLD-1 and 12 days for DLD-1 BRCA2−/−). DLD1 BRCA2 wt are used as a control to detect cell toxic effects not specific to homologous recombination deficiency.
DLD-1 BRCA2−/− and DLD-1 cells were kept in continuous culture in Assay Medium (RPMI 1640 phenol red free (Sigma R7509) containing 1% GlutaMAX (Gibco 35050) and 10% Foetal Bovine Serum (Gibco 10270-106)). On the day of the assay cells in culture of ˜80-90% confluent were used. Cell monolayers were washed with 10 mL PBS, then removed and added 2 mL TrypLE Express (Gibco 12604). The cells with TrypLE Express were incubated for 5 minutes in cell culture incubator and then the detached cells resuspend in 15 mL Assay Medium. Cells were counted using a ViCell and the cell images were monitored for clumps of cells, ideally they should be single or <3 cell clusters. The cells were diluted to 3,000 cells/mL of DLD-1 BRCA2−/− and 1,500 cells/mL of DLD-1 in Assay Medium and 100 μL added per well of transparent bottomed, black, tissue culture-treated 96-well plates (CoStar, No. 3904) Assay Ready Plates. The Assay Ready Plates contain a 10 point 10 μM to 0.51 nM dose range with three-fold dilutions in DMSO with a final volume of 100 nL. The plates were incubated at 37° C. with 5% C02 for 6 days. On day 6, 100 μL/well of Assay Medium was added to duplicate Assay Ready Plates. 90 μL of culture medium was removed from the cell plates and replenished with the Assay Media and compounds from the duplicate Assay Ready Plates using the Bravo. The plates were further incubated at 37° C. with 5% CO2. On day 7 the plates containing DLD-1 and Cell Titre Glo 3D (Promega G9683) were equilibrated to room temperature, then 60 μL of Cell Titre Glo 3D was added per well and incubated on a shaking platform for 30 min. Plates were read on the Envision measuring luminescence for 1 second per well. On day 12 the plates containing DLD-1 BRCA2−/− cells and Cell Titre Glo 3D (Promega G9683) were equilibrated to room temperature, then 60 μL Cell Titre Glo 3D added per well and incubated on a shaking platform for 30 min. Plates were read on the Envision measuring luminescence for 1 second per well. The data was exported into a suitable software package (such as Genedata) to perform curve fitting analysis. Inhibition of cell proliferation was expressed as an IC5o value and was determined by calculation of the concentration of compound that was required to give a 50% reduction of the average maximum Total Intensity signal.

[1] = DLD-1, 168 h, DLD-1 BRCA2 wt cells, 7 days, read-out: POLQ PD Prolif Lumin DLD1 mean pIC50 (converted)
[2] = DLD-1, first proliferation column (c5), DLD-1 BRCA2-/-, read-out: POLQ PD Prolif Lumin (converted)
[3] = DLD-1, second proliferation column (c6), DLD-1 BRCA2 wt control, read-out: POLQ PD Prolif Lumin (converted)
[4] = DLD-1, DLD-1 BRCA2-/- proliferation, column head only partly shown, read-out: POLQ PD Prolif Lumin (converted)
[5] = DLD-1, DLD-1 BRCA2 wt control proliferation, column head only partly shown, read-out: POLQ PD Prolif Lumin (converted)
[6] = DLD-1, DLD1 BRCA2 wt, mean, read-out: POLQ PD Prolif Lumin DLD1 mean pIC50 (converted)

SMILES | IC50 (DLD-1 BRCA2−/− cells; [4]) [nM] | IC50 (DLD-1 cells; [5]) [µM] | also measured
CN1CCCC1CCOc1ccc(-c2nc3c(OC4(C)CC4)ncnc3n2Cc2ccccc2)c(Cl)c1 (racemic) [Example D2, 9-benzyl-8-(2-chloro-4-(2-(1-methylpyrrolidin-2-yl)ethoxy)phenyl)-6-(1-methylcyclopropoxy)-9H-purine] |  |  | IC50 (DLD-1 BRCA2−/− cells; DLD-1, 288 h, DLD-1 BRCA2−/− cells, 12 days, read-out: POLQ PD Prolif Lumin BRCA2 −/− mean pIC50 (converted)): 15.8 nM; IC50 (DLD-1 cells; [1]): 1.26 µM
Cc1ccnc(Cn2c(-c3ccc(OC4CNC(=O)C4)cc3Cl)nc3c(OC4(C)CC4)ncnc32)c1 (racemic) [Example T179, 4-(3-chloro-4-(6-(1-methylcyclopropoxy)-9-((4-methylpyridin-2-yl)methyl)-9H-purin-8-yl)phenoxy)pyrrolidin-2-one] |  |  | IC50 (DLD-1 BRCA2−/− cells; [2]): 316 nM; IC50 (DLD-1 cells; [3]): > 10 µM
Cc1ccnc(Cn2c(-c3ccc(OC4CNC(=O)OC4)cc3Cl)nc3c(OC4(C)CC4)ncnc32)c1 (racemic) [Example T187, 5-(3-chloro-4-(6-(1-methylcyclopropoxy)-9-((4-methylpyridin-2-yl)methyl)-9H-purin-8-yl)phenoxy)-1,3-oxazinan-2-one] |  |  | IC50 (DLD-1 BRCA2−/− cells; [2]): 1000 nM; IC50 (DLD-1 cells; [3]): > 10 µM
CC(CCOc1ccc(-c2nc3c(OC4(C)CC4)ncnc3n2Cc2c(F)c(F)c(F)c(F)c2F)c(Cl)c1)C(=O)O (racemic) [Example T251, 4-(3-chloro-4-(6-(1-methylcyclopropoxy)-9-((perfluorophenyl)methyl)-9H-purin-8-yl)phenoxy)-2-methylbutanoic acid] | 2000 | > 10 | 
CC(CCOc1ccc(-c2nc3c(OC4(C#N)CC4)ncnc3n2Cc2cccc(Cl)c2)c(Cl)c1)C(=O)O (racemic) [Example T252, 4-(3-chloro-4-(9-(3-chlorobenzyl)-6-(1-cyanocyclopropoxy)-9H-purin-8-yl)phenoxy)-2-methylbutanoic acid] | 398 | > 10 | 
CC(CCOc1ccc(-c2nc3c(OC4(C)CC4)ncnc3n2Cc2cc(Br)ccc2F)c(Cl)c1)C(=O)O (racemic) [Example T258, 4-(4-(9-(5-bromo-2-fluorobenzyl)-6-(1-methylcyclopropoxy)-9H-purin-8-yl)-3-chlorophenoxy)-2-methylbutanoic acid] | 79.4 | > 10 | 
CC(CCOc1ccc(-c2nc3c(OC4(C)CC4)ncnc3n2Cc2c(Cl)cccc2Br)c(Cl)c1)C(=O)O (racemic) [Example T259, 4-(4-(9-(2-bromo-6-chlorobenzyl)-6-(1-methylcyclopropoxy)-9H-purin-8-yl)-3-chlorophenoxy)-2-methylbutanoic acid] | 3160 | > 10 | 
CC(CCOc1ccc(-c2nc3c(OC4(C)CC4)ncnc3n2Cc2cc(F)cc(F)c2)c(Cl)c1)C(=O)O (racemic) [Example T260, 4-(3-chloro-4-(9-(3,5-difluorobenzyl)-6-(1-methylcyclopropoxy)-9H-purin-8-yl)phenoxy)-2-methylbutanoic acid] | 251 | > 10 | 
CC(CCOc1ccc(-c2nc3c(OC4(C)CC4)ncnc3n2Cc2cc(Cl)ccc2F)c(Cl)c1)C(=O)O (racemic) [Example T268, 4-(3-chloro-4-(9-(5-chloro-2-fluorobenzyl)-6-(1-methylcyclopropoxy)-9H-purin-8-yl)phenoxy)-2-methylbutanoic acid] | 63.1 | > 10 | 
CC(CCOc1ccc(-c2nc3c(OC(C)(C)C(F)(F)F)ncnc3n2Cc2cccc(Cl)c2)c(Cl)c1)C(=O)O (racemic) [Example T274, 4-(3-chloro-4-(9-(3-chlorobenzyl)-6-((1,1,1-trifluoro-2-methylpropan-2-yl)oxy)-9H-purin-8-yl)phenoxy)-2-methylbutanoic acid] | 316 | > 10 | 
CC(CCOc1ccc(-c2nc3c(OC4(C)CC4)ncnc3n2Cc2cc(Cl)cc(Cl)c2)c(Cl)c1)C(=O)O (racemic) [Example T275, 4-(3-chloro-4-(9-(3,5-dichlorobenzyl)-6-(1-methylcyclopropoxy)-9H-purin-8-yl)phenoxy)-2-methylbutanoic acid] | 126 | > 10 | 
CC(CCOc1ccc(-c2nc3c(OC4(C)CC4)ncnc3n2Cc2cc(Cl)ccc2Cl)c(Cl)c1)C(=O)O (racemic) [Example T276, 4-(3-chloro-4-(9-(2,5-dichlorobenzyl)-6-(1-methylcyclopropoxy)-9H-purin-8-yl)phenoxy)-2-methylbutanoic acid] | 63.1 | > 10 | 
CC(CCOc1ccc(-c2nc3c(OC4(C)CC4)ncnc3n2Cc2c(Cl)cccc2Cl)c(Cl)c1)C(=O)O (racemic) [Example T277, 4-(3-chloro-4-(9-(2,6-dichlorobenzyl)-6-(1-methylcyclopropoxy)-9H-purin-8-yl)phenoxy)-2-methylbutanoic acid] | 2000 | > 10 | 
CC(CCOc1ccc(-c2nc3c(OC4(C)CC4)ncnc3n2Cc2ccccc2Br)c(Cl)c1)C(=O)O (racemic) [Example T278, 4-(4-(9-(2-bromobenzyl)-6-(1-methylcyclopropoxy)-9H-purin-8-yl)-3-chlorophenoxy)-2-methylbutanoic acid] | 316 | > 10 | 
Cc1cc(OC2CNC2)ncc1-c1nc2c(OC3(C)CC3)ncnc2n1Cc1ccccc1 [Example G17, 8-{6-[(azetidin-3-yl)oxy]-4-methylpyridin-3-yl}-9-benzyl-6-[(1-methylcyclopropyl)oxy]-9H-purine] |  |  | IC50 (DLD-1 cells; [1]): 7.94 µM
CC1(Oc2ncnc3c2nc(-c2ccc(OCCN4CCNCC4)cc2Cl)n3CCc2ccccn2)CC1 [Example J11, 8-(2-chloro-4-(2-(piperazin-1-yl)ethoxy)phenyl)-6-(1-methylcyclopropoxy)-9-(2-(pyridin-2-yl)ethyl)-9H-purine] |  |  | IC50 (DLD-1 cells; [1]): > 10 µM
Cn1cnnc1Cn1c(-c2ccc(OCCN3CCNCC3)cc2Cl)nc2c(OC3(C)CC3)ncnc21 [Example T150, 8-(2-chloro-4-(2-(piperazin-1-yl)ethoxy)phenyl)-9-((4-methyl-4H-1,2,4-triazol-3-yl)methyl)-6-(1-methylcyclopropoxy)-9H-purine] |  |  | IC50 (DLD-1 cells; [3]): > 10 µM
COc1ccc(F)cc1Cn1c(-c2cccc(OCCCOCC(=O)O)c2Cl)nc2c(OC3(C)CC3)ncnc21 [Example U71, 2-(3-(2-chloro-3-(9-(5-fluoro-2-methoxybenzyl)-6-(1-methylcyclopropoxy)-9H-purin-8-yl)phenoxy)propoxy)acetic acid] |  |  | IC50 (DLD-1 cells; [6]): > 10 µM
COc1ccc(F)cc1Cn1c(-c2cccc(OCC[C@@H](C)C(=O)O)c2Cl)nc2c(OC3(C)CC3)ncnc21 [Example U78, (R)-4-(2-chloro-3-(9-(5-fluoro-2-methoxybenzyl)-6-(1-methylcyclopropoxy)-9H-purin-8-yl)phenoxy)-2-methylbutanoic acid] |  |  | IC50 (DLD-1 cells; [6]): > 10 µM
CC1(Oc2ncnc3c2nc(-c2cccc(O[C@H]4CC[C@H](C(=O)O)CC4)c2Cl)n3Cc2cc(Cl)ccc2C#N)CC1 [Example U85, (1r,4r)-4-(2-chloro-3-(9-(5-chloro-2-cyanobenzyl)-6-(1-methylcyclopropoxy)-9H-purin-8-yl)phenoxy)cyclohexane-1-carboxylic acid] |  |  | POLQ PD Prolif Lumin DLD1 mean pIC50 (DLD-1 cells; DLD1 BRCA2 wt, mean): <5.0
COc1ccc(Cl)cc1Cn1c(-c2ccc(OCCCOC(C)(C)C(=O)O)cc2Cl)nc2c(OC3(C)CC3)ncnc21 [Example U92, 2-(3-(3-chloro-4-(9-(5-chloro-2-methoxybenzyl)-6-(1-methylcyclopropoxy)-9H-purin-8-yl)phenoxy)propoxy)-2-methylpropanoic acid] |  |  | IC50 (DLD-1 cells; [6]): > 10 µM
